Reference: patent US7741283B2, “Compositions and methods for inhibiting cell proliferation” (St. Louis University, priority 2003, dated 2010)

Tests used:
[1] = test system: 32D cells expressing vector only; assay: [methyl-3H] thymidine incorporation, 32D cells transfected with vector only; type: cell-based, murine
PEA-C11 cells = assay: [methyl-3H] thymidine incorporation, PEA-C11 cells; type: cell-based, mink; conditions: IGFBP-3 0.5 μg/ml
Mv1Lu cells = assay: Cell growth (cell number), Mv1Lu cells; type: cell-based, mink; conditions: IGFBP-3 0.5 μg/ml, 4-day
Protocol: FIG. 6 depicts the effects of IGFBP-3 and TGF-β1 on DNA synthesis (A), cell growth (B) and PAI-1 expression (C) in Mv1Lu and PEA-C11 cells. (A,B) Cells were incubated with various concentrations of IGFBP-3 (a) or TGF-β1 (b) as indicated. DNA synthesis and cell growth were determined by measuring the [methyl-^3H] thymidine incorporation into cellular DNA after 18 hr incubation (A) and by counting cell number after a 4-day incubation (B), respectively. The [methyl-^3H] thymidine incorporation in cells treated without IGFBP-3 and TGF-β1 (29,170±1,657 and 59,947±7,692 cpm/well for Mv1Lu and PEA-C11 cells, respectively) were taken as 0% inhibition. […] Each data point is the mean±S.D. of quadruplicate determinations. […] Data are representative of eight similar experiments. (C) Cells were incubated with various concentrations of TGF-β1 as indicated. After 2 hr at 37° C., the PAI-1 expression was determined by Northern blot analysis. The expression of glyceraldehyde-3-phosphate dehydrogenase (G3PDH) was used as control. The relative levels of the transcripts were quantified by a Phospholmager. Data are representative of four similar experiments.
Cells were plated at a density of 1-2×10^4 cells/dish in DMEM containing 1% fetal calf serum. The cell number was counted every day or after a 3-day incubation using a hematocytometer. The assays were performed in quadruplicate.

acidic pH binding sites = acidic pH binding sites (Neogale vison, UniProt A0A8C7BSJ2); assay: Specific binding of 125I-ligands to Mv1Lu cells at acidic pH; set-up: species or system mink; conditions: Mv1Lu cells; EGTA/BAPTA- or GST-RAP-sensitive binding, 0° C.
MEF cells [2] = assay: Cell growth (cell number), MEF cells; type: cell-based, mouse; conditions: IGFBP-3 up to 1 μg/ml
Protocol: (§1) FIG. 7 depicts the effect of TGF-β1 on DNA synthesis (A), cell growth (B) and PAI-1 expression (C) in MEF and PEA-13 cells. (A) Cells were treated with various concentrations of TGF-β1 as indicated. DNA synthesis was determined by measuring [methyl-^3H] thymidine incorporation into cellular DNA. The [methyl-^3H] thymidine incorporation in cells treated without TGF-β1 (100,861±3,720 and 103,262±6,722 cpm/well for MEF and PEA-13 cells, respectively) was taken as 0% inhibition. The negative values of inhibition indicate mitogenic activity. […] Each datapoint is the mean±S.D. of quadruplicate determinations. […] Data are representative of six similar experiments. (B) Cells were treated with various concentrations of TGF-β1 as indicated. The cell number was counted after a 4 day incubation. […] The negative values of the inhibition indicate the growth stimulatory activity. Each datapoint is the mean±S.D. of quadruplicate determinations. […] Data are representative of four similar experiments. (C) Cells were treated with various concentrations of TGF-β1 as indicated. The PAI-1 expression in these cells was determined by Northern blot analysis. […] The relative levels of the transcripts were quantified by a PhosphoImager. […]
(§2) Cells were plated at a density of 1-2×10^4 cells/dish in DMEM containing 1% fetal calf serum. The cell number was counted every day or after a 3-day incubation using a hematocytometer. […]

IRS-2 [3] = assay: 32P metabolic labeling and immunoprecipitation of IRS-2, DR26 cells; type: cell-based, mink; conditions: IGFBP-3 1 μg/ml
H1299/LRP cells [4] = assay: [methyl-3H] thymidine incorporation, H1299/LRP cells; type: cell-based, human; conditions: various concentrations
MEF cells [5] = assay: [methyl-3H] thymidine incorporation, MEF cells; type: cell-based, mouse; conditions: IGFBP-3 up to 1 μg/ml
Protocol: (§3) FIG. 7 depicts the effect of TGF-β1 on DNA synthesis (A), cell growth (B) and PAI-1 expression (C) in MEF and PEA-13 cells. (A) Cells were treated with various concentrations of TGF-β1 as indicated. DNA synthesis was determined by measuring [methyl-^3H] thymidine incorporation into cellular DNA. The [methyl-^3H] thymidine incorporation in cells treated without TGF-β1 (100,861±3,720 and 103,262±6,722 cpm/well for MEF and PEA-13 cells, respectively) was taken as 0% inhibition. The negative values of inhibition indicate mitogenic activity. […] Each datapoint is the mean±S.D. of quadruplicate determinations. […] Data are representative of six similar experiments. (B) Cells were treated with various concentrations of TGF-β1 as indicated. The cell number was counted after a 4 day incubation. […] The negative values of the inhibition indicate the growth stimulatory activity. Each datapoint is the mean±S.D. of quadruplicate determinations. […] Data are representative of four similar experiments. (C) Cells were treated with various concentrations of TGF-β1 as indicated. The PAI-1 expression in these cells was determined by Northern blot analysis. The expression of G3PDH was used as control. The relative levels of the transcripts were quantified by a PhosphoImager. Data are representative of four similar experiments. […]

TβR-V/IGFBP-3 receptor = conditions: Mv1Lu cells; read-out: Kd of IGFBP-3 binding to its receptor; cited from earlier work
PEA-13 cells [6] = assay: [methyl-3H] thymidine incorporation, PEA-13 cells; type: cell-based, mouse; conditions: IGFBP-3 up to 1 μg/ml
Protocol: as §3

32D/IRS-1 cells = assay: [methyl-3H] thymidine incorporation, 32D/IRS-1 cells; type: cell-based, murine; conditions: 32D cells expressing IRS-1
R1B cells = conditions: IGFBP-3 0.5 μg/ml; cited from earlier work
PEA-13 cells [7] = assay: Cell growth (cell number), PEA-13 cells; type: cell-based, mouse; conditions: IGFBP-3 up to 1 μg/ml
Protocol: as §1, §2

H1299/LRP cells [8] = assay: Cell growth (cell number), H1299/LRP cells; type: cell-based, human; conditions: TGF-β1 20 pM or IGFBP-3 1 μg/ml, 3-day
IRS-2 [9] = assay: 32P metabolic labeling and immunoprecipitation of IRS-2, MB102-16 cells; type: cell-based, mink; conditions: MB102-16 cells (αIβI); IGFBP-3 1 μg/ml, GM-CSF 1 nM

Sequence of acidic pH binding sites (A0A8C7BSJ2 entry or part of it): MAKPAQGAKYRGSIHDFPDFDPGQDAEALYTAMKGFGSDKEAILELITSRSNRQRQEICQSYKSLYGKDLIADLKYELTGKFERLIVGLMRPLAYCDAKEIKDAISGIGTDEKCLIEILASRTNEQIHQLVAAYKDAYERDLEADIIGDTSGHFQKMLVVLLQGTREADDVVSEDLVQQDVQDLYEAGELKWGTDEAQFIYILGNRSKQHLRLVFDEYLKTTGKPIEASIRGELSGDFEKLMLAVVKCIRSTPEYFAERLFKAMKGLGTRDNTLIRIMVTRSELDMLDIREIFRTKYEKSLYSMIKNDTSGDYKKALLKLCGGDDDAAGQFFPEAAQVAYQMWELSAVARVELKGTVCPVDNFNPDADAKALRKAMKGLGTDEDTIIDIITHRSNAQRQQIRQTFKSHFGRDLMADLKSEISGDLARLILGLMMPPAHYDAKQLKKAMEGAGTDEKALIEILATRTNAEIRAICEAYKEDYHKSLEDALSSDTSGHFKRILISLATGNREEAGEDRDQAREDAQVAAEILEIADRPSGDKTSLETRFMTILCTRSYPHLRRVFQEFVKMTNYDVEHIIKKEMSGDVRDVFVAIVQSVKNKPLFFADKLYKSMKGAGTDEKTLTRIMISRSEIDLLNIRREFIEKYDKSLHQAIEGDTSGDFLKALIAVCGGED

IGFBP-3: human insulin-like growth factor binding protein-3 expressed in E. Coli
Inhibition of DNA synthesis [1]: minimally or not at all | Inhibition of DNA synthesis (PEA-C11 cells): ~10% | Inhibition of cell growth (Mv1Lu cells): ~70% | pH of optimal/maximal binding (acidic pH binding sites): 5 | Effect on cell growth (MEF cells [2]): did not appear to have a significant effect | Electrophoretic mobility change of IRS-2 compared with Mv1Lu and R1B cells (IRS-2 [3]): induced a greater increase in electrophoretic mobility | Effect on DNA synthesis (H1299/LRP cells [4]): inhibited | Effect on DNA synthesis (MEF cells [5]): did not appear to have a significant effect | Kd (TβR-V/IGFBP-3 receptor): 6 nM | Effect on DNA synthesis (PEA-13 cells [6]): did not appear to have a significant effect | Growth inhibitory response (DNA synthesis) (32D/IRS-1 cells): potent growth inhibitory response | Inhibition of DNA synthesis (R1B cells): 30-50% | Effect on cell growth (PEA-13 cells [7]): did not appear to have a significant effect | Effect on cell growth (H1299/LRP cells [8]): inhibited | Specific dephosphorylation (mobility change) of IRS-2 (IRS-2 [9]): induced specific dephosphorylation
